Biological target: human JAK1 (a.a. 837-1142)
Assay: In vitro JAK kinase assay (HTRF, phosphorylation of a biotinylated peptide), JAK1
Assay type: biochemical
Conditions: measured at 1 mM ATP; JAK2 IC50 / JAK1 IC50
Outline: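 N-terminally His-tagged catalytic domains, baculovirus-expressed in insect cells and purified, were used as enzyme. Reactions ran 1 hr at room temperature and were stopped with a mix of 45 mM EDTA, 300 nM SA-APC and 6 nM Eu-Py20. The HTRF signal was read after 40 min of antibody binding.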

| SMILES | IC50 Ratio JAK2/JAK1 |
| --- | --- |
| N#CCC1(n2cc(-c3ncnc4[nH]ccc34)cn2)CN(C2CCN(C(=O)c3cc(C(F)(F)F)ncc3Cl)CC2)C1 [Example 342, {1-{1-[5-Chloro-2-(trifluoromethyl)isonicotinoyl]piperidin-4-yl}-3-[4-(7H-pyrrolo[2,3-d]pyrimidin-4-yl)-1H-pyrazol-1-yl]azetidin-3-yl}acetonitrile] | 5.7 |
| N#CCC1(n2cc(-c3ncnc4[nH]ccc34)cn2)CN(C2CCN(C(=O)c3sc4cccc(F)c4c3Cl)CC2)C1 [Example 92, {1-{1-[(3-chloro-4-fluoro-1-benzothien-2-yl)carbonyl]piperidin-4-yl}-3-[4-(7H-pyrrolo[2,3-d]pyrimidin-4-yl)-1H-pyrazol-1-yl]azetidin-3-yl}acetonitrile] | 2.8 |
| N#CCC1(n2cc(-c3ncnc4[nH]ccc34)cn2)CN(C2CC3CCC(C2)N3C(=O)c2ccc(C(F)(F)F)nc2)C1 (centres unmarked) [Example 143, [3-[4-(7H-pyrrolo[2,3-d]pyrimidin-4-yl)-1H-pyrazol-1-yl]-1-(8-{[6-(trifluoromethyl)pyridin-3-yl]carbonyl}-8-azabicyclo[3.2.1]oct-3-yl)azetidin-3-yl]acetonitrile] | 3.5 |
| N#CCC1(n2ccc(-c3ncnc4[nH]ccc34)c2)CN(C2CCN(C(=O)c3cc(F)cc(C(F)(F)F)c3)CC2)C1 [Example 274, {1-{1-[3-fluoro-5-(trifluoromethyl)benzoyl]piperidin-4-yl}-3-[3-(7H-pyrrolo[2,3-d]pyrimidin-4-yl)-1H-pyrrol-1-yl]azetidin-3-yl}acetonitrile] | 9.0 |
| N#CCC1(n2cc(-c3ncnc4[nH]ccc34)cn2)CN(C2CCN(Cc3cc4ccccc4nc3Cl)CC2)C1 [Example 214, {1-{1-[(2-chloroquinolin-3-yl)methyl]piperidin-4-yl}-3-[4-(7H-pyrrolo[2,3-d]pyrimidin-4-yl)-1H-pyrazol-1-yl]azetidin-3-yl}acetonitrile] | 2.5 |
| COc1ncccc1NC(=O)N1CCC(N2CC(CC#N)(n3cc(-c4ncnc5[nH]ccc45)cn3)C2)CC1 [Example 204, 4-{3-(cyanomethyl)-3-[4-(7H-pyrrolo[2,3-d]pyrimidin-4-yl)-1H-pyrazol-1-yl]azetidin-1-yl}-N-(2-methoxypyridin-3-yl)piperidine-1-carboxamide] | 4.0 |
| N#CCC1(n2cc(-c3c(F)cnc4[nH]ccc34)cn2)CN(C2CCN(C(=O)C3CCC(F)(F)CC3)CC2)C1 [Example 327, {1-{1-[(4,4-difluorocyclohexyl)carbonyl]piperidin-4-yl}-3-[4-(5-fluoro-1H-pyrrolo[2,3-b]pyridine-4-yl)-1H-pyrazol-1-yl]azetidin-3-yl}acetonitrile] | 4.1 |
| N#CCC1(n2cc(-c3ccnc4[nH]ccc34)cn2)CN(C2CCN(C(=O)Nc3ccccc3F)CC2)C1 [Example 309, 4-{3-(cyanomethyl)-3-[4-(1H-pyrrolo[2,3-b]pyridin-4-yl)-1H-pyrazol-1-yl]azetidin-1-yl}-N-(2-fluorophenyl)piperidine-1-carboxamide] | 5.3 |
| COc1cc(F)ccc1C(=O)N1CCC(N2CC(CC#N)(n3cc(-c4ncnc5[nH]ccc45)cn3)C2)CC1 [Example 40, {1-[1-(4-fluoro-2-methoxybenzoyl)piperidin-4-yl]-3-[4-(7H-pyrrolo[2,3-d]pyrimidin-4-yl)-1H-pyrazol-1-yl]azetidin-3-yl}acetonitrile] | 4.8 |
| N#CCC1(n2cc(-c3c(C#N)cnc4[nH]ccc34)cn2)CN(C2CCN(C(=O)c3cc(Br)cc(Br)c3)CC2)C1 [Example 336] | 2.9 |
| N#CCC1(n2cc(-c3ncnc4[nH]ccc34)cn2)CN(C2CC3CCC(C2)N3C(=O)c2ccc(C#N)c(F)c2)C1 (centres unmarked) [Example 140, 4-[(3-{3-(cyanomethyl)-3-[4-(7H-pyrrolo[2,3-d]pyrimidin-4-yl)-1H-pyrazol-1-yl]azetidin-1-yl}-8-azabicyclo[3.2.1]oct-8-yl)carbonyl]-2-fluorobenzonitrile] | 5.4 |

Reference: patent US10695337B2, “Piperidin-4-yl azetidine derivatives as JAK1 inhibitors” (Incyte Corporation, priority 2010, dated 2020)
